Reference: ChEMBL document CHEMBL4373722, “Selective, Small-Molecule Co-Factor Binding Site Inhibition of a Su(var)3-9, Enhancer of Zeste, Trithorax Domain Containing Lysine Methyltransferase” (J Med Chem, 2019)
Activity calls are given as the source filed them. The calls are words filed in the database; no cut-off is given here.

Assays:
[1] = biological target: T1, N-lysine methyltransferase SMYD2 (Homo sapiens, UniProt Q9NRG4); assay: Inhibition of recombinant human SMYD2 (1 to 433 residues) expressed in baculovirus infected Sf9 insect cells using biotinylated-p53 peptide (361 to 380 residues) as substrate measured after 50 mins in presence of 70 nM [3H]-SAM by scintillation proximity assay
T1 sequence (Q9NRG4 whole entry, the tested form may be a part): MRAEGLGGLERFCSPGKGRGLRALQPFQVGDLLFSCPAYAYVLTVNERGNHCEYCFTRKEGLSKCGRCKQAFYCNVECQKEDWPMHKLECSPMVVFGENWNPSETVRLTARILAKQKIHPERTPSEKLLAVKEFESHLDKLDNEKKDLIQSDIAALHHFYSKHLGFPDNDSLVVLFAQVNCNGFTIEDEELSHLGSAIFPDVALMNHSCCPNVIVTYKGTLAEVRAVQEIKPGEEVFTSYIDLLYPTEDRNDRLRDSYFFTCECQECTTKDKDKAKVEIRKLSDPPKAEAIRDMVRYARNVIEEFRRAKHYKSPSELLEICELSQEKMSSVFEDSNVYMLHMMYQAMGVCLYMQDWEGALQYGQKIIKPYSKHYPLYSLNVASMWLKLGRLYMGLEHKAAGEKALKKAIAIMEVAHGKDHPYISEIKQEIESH

Homo sapiens [2] = organism: Homo sapiens; assay: Selectivity ratio of IC50 for SUV420H1 in human MCF7 cells to IC50 for V5-tagged SMYD2 (unknown origin) transfected in human MCF7 cells co-transfected with FLAG-tagged p53; type: cell-based
U2OS = assay: Cytotoxicity against human U2OS cells up to 10 uM measured after 5 days by IncuCyte zoom live cell analysis; type: cell-based; conditions: 120 h
[3] = biological target: Histone-lysine N-methyltransferase KMT5B (Homo sapiens) (UniProt Q4FZB7); assay: Inhibition of SUV420H1 (unknown origin) at 1 uM using biotin-labeled peptide as substrate and [3H]-SAM measured after 1 hr by scintillation proximity assay
Sequence of Histone-lysine N-methyltransferase KMT5B (Homo sapiens) (Q4FZB7 whole entry, looked up): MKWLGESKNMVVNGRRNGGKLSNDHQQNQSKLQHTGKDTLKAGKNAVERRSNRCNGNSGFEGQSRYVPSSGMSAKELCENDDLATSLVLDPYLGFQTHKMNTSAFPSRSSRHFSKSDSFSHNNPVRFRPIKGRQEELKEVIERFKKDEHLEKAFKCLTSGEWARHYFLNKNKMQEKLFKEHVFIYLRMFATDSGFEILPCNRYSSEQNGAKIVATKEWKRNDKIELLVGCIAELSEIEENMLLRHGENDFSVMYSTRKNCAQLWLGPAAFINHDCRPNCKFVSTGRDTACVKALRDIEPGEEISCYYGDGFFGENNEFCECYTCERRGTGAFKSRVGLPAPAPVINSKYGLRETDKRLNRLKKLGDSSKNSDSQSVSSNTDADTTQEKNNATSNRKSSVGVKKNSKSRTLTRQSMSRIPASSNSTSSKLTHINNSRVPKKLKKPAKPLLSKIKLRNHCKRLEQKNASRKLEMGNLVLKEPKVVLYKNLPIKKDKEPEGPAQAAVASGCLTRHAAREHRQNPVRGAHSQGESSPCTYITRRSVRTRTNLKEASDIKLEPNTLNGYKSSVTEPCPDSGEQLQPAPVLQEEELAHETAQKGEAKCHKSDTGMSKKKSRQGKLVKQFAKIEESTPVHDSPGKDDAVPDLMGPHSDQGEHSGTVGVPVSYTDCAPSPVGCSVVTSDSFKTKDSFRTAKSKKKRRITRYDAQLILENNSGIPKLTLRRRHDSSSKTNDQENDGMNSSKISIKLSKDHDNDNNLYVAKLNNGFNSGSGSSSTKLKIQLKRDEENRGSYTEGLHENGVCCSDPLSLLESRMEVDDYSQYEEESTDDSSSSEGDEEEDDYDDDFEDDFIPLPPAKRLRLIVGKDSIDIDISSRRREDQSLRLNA

[4] = biological target: T1, N-lysine methyltransferase SMYD2; assay: Inhibition of V5-tagged SMYD2 (unknown origin) transfected in HEK293 cells co-transfected with FLAG-tagged p53 assessed as reduction in p53 methylation at K370 residue measured after 20 hrs by immunoblot analysis; type: cell-based
[5] = biological target: Histone-lysine N-methyltransferase KMT5C (Homo sapiens) (UniProt Q86Y97); assay: Inhibition of SUV420H2 in human MCF7 cells assessed as decrease in H4K20me3 level up to 50 uM measured after 2 days by immunoblot analysis; type: cell-based
Sequence of Histone-lysine N-methyltransferase KMT5C (Homo sapiens) (Q86Y97 whole entry, looked up, the tested form may be a part): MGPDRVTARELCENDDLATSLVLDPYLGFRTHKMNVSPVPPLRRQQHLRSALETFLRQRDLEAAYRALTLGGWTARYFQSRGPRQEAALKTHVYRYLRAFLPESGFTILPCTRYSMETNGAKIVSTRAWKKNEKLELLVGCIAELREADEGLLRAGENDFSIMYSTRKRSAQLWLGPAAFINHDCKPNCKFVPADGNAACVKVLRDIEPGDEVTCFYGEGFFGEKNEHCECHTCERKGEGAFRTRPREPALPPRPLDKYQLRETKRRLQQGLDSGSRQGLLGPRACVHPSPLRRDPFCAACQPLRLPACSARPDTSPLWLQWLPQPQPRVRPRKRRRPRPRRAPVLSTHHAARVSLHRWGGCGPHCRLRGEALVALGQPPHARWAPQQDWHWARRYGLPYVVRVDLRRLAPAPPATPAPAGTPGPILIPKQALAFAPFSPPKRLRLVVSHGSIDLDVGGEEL

Homo sapiens [6] = organism: Homo sapiens; assay: Selectivity ratio of IC50 for SUV420H1 (unknown origin) to IC50 for recombinant human SMYD2 (1 to 433 residues) expressed in baculovirus infected Sf9 insect cells at 40 uM using biotinylated-p53 peptide (361 to 380 residues) as substrate measured after 50 mins in presence of 70 nM [3H]-SAM
[7] = biological target: T1, N-lysine methyltransferase SMYD2; assay: Inhibition of V5-tagged SMYD2 (unknown origin) transfected in human CAL120 cells co-transfected with FLAG-tagged p53 assessed as reduction in p53 methylation at K370 residue measured after 20 hrs by immunoblot analysis; type: cell-based
[8] = biological target: T1, N-lysine methyltransferase SMYD2; assay: Inhibition of V5-tagged SMYD2 (unknown origin) transfected in human MCF7 cells co-transfected with FLAG-tagged p53 assessed as reduction in p53 methylation at K370 residue measured after 20 hrs by immunoblot analysis; type: cell-based
[9] = biological target: Histone-lysine N-methyltransferase KMT5C (Homo sapiens) (UniProt Q86Y97); assay: Inhibition of SUV420H2 (unknown origin) at 1 uM using biotin-labeled peptide as substrate and [3H]-SAM measured after 1 hr by scintillation proximity assay
[10] = biological target: Histone-lysine N-methyltransferase KMT5B (Homo sapiens) (UniProt Q4FZB7); assay: Inhibition of SUV420H1 in human MCF7 cells assessed as decrease in H4K20me3 level up to 50 uM measured after 2 days by immunoblot analysis; type: cell-based
[11] = biological target: T1, N-lysine methyltransferase SMYD2; assay: Inhibition of V5-tagged SMYD2 (unknown origin) transfected in human HeLa cells co-transfected with FLAG-tagged p53 assessed as reduction in p53 methylation at K370 residue measured after 20 hrs by immunoblot analysis; type: cell-based
MCF7 [12] = assay: Cytotoxicity against human MCF7 cells up to 10 uM measured after 5 days by IncuCyte zoom live cell analysis; type: cell-based; conditions: mcf7, 120 h
[13] = biological target: T1, N-lysine methyltransferase SMYD2; assay: Inhibition of V5-tagged SMYD2 (unknown origin) transfected in human U2OS cells co-transfected with FLAG-tagged p53 assessed as reduction in p53 methylation at K370 residue measured after 20 hrs by immunoblot analysis; type: cell-based
[14] = biological target: T1, N-lysine methyltransferase SMYD2; assay: Competitive inhibition of recombinant human SMYD2 (1 to 433 residues) expressed in baculovirus infected Sf9 insect cells using biotinylated-p53 peptide (361 to 380 residues) as substrate measured after 50 mins in presence of varying levels of [3H]-SAM by scintillation proximity assay
[15] = biological target: T1, N-lysine methyltransferase SMYD2; assay: Inhibition of V5-tagged SMYD2 (unknown origin) transfected in human MCF7 cells co-transfected with FLAG-tagged p53 assessed as reduction in p53 methylation at K370 residue at 10 uM measured after 20 hrs by immunoblot analysis relative to control; type: cell-based
[16] = biological target: T1, N-lysine methyltransferase SMYD2; assay: Mixed inhibition of recombinant human SMYD2 (1 to 433 residues) expressed in baculovirus infected Sf9 insect cells using varying levels of biotinylated-p53 peptide (361 to 380 residues) as substrate measured after 50 mins in presence of 2 uM [3H]-SAM by scintillation proximity assay
[17] = biological target: T1, N-lysine methyltransferase SMYD2; assay: Inhibition of V5-tagged SMYD2 (unknown origin) transfected in human MDA-MB-231 cells co-transfected with FLAG-tagged p53 assessed as reduction in p53 methylation at K370 residue measured after 20 hrs by immunoblot analysis; type: cell-based
[18] = Cytotoxicity against human TERA2D cells up to 10 uM measured after 5 days by IncuCyte zoom live cell analysis; type: cell-based; conditions: 120 h
Homo sapiens [19] = organism: Homo sapiens; assay: Selectivity ratio of IC50 for SUV420H2 in human MCF7 cells to IC50 for V5-tagged SMYD2 (unknown origin) transfected in human MCF7 cells co-transfected with FLAG-tagged p53; type: cell-based
[20] = biological target: T1, N-lysine methyltransferase SMYD2; assay: Inhibition of recombinant human SMYD2 (1 to 433 residues) expressed in baculovirus infected Sf9 insect cells using biotinylated-p53 peptide (361 to 380 residues) as substrate measured after 120 mins in presence of 20 uM [3H]-SAM by scintillation proximity assay
Homo sapiens [21] = organism: Homo sapiens; assay: Selectivity ratio of IC50 for SUV420H2 (unknown origin) to IC50 for recombinant human SMYD2 (1 to 433 residues) expressed in baculovirus infected Sf9 insect cells at 40 uM using biotinylated-p53 peptide (361 to 380 residues) as substrate measured after 50 mins in presence of 70 nM [3H]-SAM
[22] = Lipophilicity, log D of the compound; type: physicochemical; conditions: octanol/water
MCF7 [23] = assay: Effect on total p53 level in human MCF7 cells co-transfected with V5-tagged SMYD2/FLAG-tagged p53 up to 30 uM measured after 20 hrs by immunoblot analysis; type: ADME, cell-based; conditions: mcf7, 20 h
[24] = biological target: T1, N-lysine methyltransferase SMYD2; assay: Inhibition of V5-tagged SMYD2 (unknown origin) transfected in human MCF7 cells co-transfected with FLAG-tagged p53 assessed as reduction in p53 methylation at K370 residue at 30 uM measured after 20 hrs by immunoblot analysis; type: cell-based
[25] = biological target: T1, N-lysine methyltransferase SMYD2; assay: Inhibition of recombinant human SMYD2 (1 to 433 residues) expressed in baculovirus infected Sf9 insect cells at 40 uM using biotinylated-p53 peptide (361 to 380 residues) as substrate measured after 50 mins in presence of 70 nM [3H]-SAM by scintillation proximity assay relative to control
[26] = biological target: T1, N-lysine methyltransferase SMYD2; conditions: MCF7, 1 uM
Description: Inhibition of V5-tagged SMYD2 (unknown origin) transfected in human MCF7 cells co-transfected with FLAG-tagged p53 assessed as reduction in p53 methylation at K370 residue at 1 uM measured after 20 hrs by immunoblot analysis relative to control

[27] = biological target: T1, N-lysine methyltransferase SMYD2; assay: Inhibition of V5-tagged SMYD2 (unknown origin) transfected in human MCF7 cells co-transfected with FLAG-tagged p53 assessed as reduction in p53 methylation at K370 residue at 10 to 30 uM measured after 20 hrs by immunoblot analysis; type: cell-based

Question: Which results are given for Cc1cc2c(ncn2C2(C)CN(C(=O)c3ccn(CC4CCN([C@H]5C=CCCCC5)CC4)c3)C2)c(N)n1?
Answer: IC50 [1]: 8 nM; Ratio IC50 (Homo sapiens [2]): 30; Activity (U2OS): Non-Toxic; inhibition [3]: Active; IC50 [4]: 1300 to 3000 nM; inhibition [5]: inactive; Ratio IC50 (Homo sapiens [6]): > 60; IC50 [7]: 1300 to 3000 nM; IC50 [8]: 1300 nM; inhibition [9]: Active; inhibition [10]: inactive; IC50 [11]: 1300 to 3000 nM; Activity (MCF7 [12]): Non-Toxic; IC50 [13]: 1300 to 3000 nM; inhibition [14]: Active; inhibition [15]: 100%; inhibition [16]: Active; IC50 [17]: 1300 to 3000 nM; Activity [18]: Non-Toxic; Ratio IC50 (Homo sapiens [19]): 30; IC50 [20]: 0.016 µM; Ratio IC50 (Homo sapiens [21]): > 60; logD [22]: 1.3

Question: With Cc1nc(N)c2ncn(C3CN(C(=O)c4ccn(CC5CCN(C6C=CCCCC6)CC5)c4)C3)c2n1 (configuration not stated) as the compound, how does the IC50 [1] read?
Answer: 6 nM

Question: What about the Activity (MCF7 [23]) of the same compound?
Answer: Non-Toxic

Question: What about the inhibition [24] of the same compound?
Answer: Active

Question: What about the IC50 [20] of the same compound?
Answer: 0.023 µM

Question: Which IC50 [1] does the source give for CC(C)N1CCN(Cc2cc(C(=O)N3CC(n4cnc5c(N)ncnc54)C3)nn2C)CC1 here?
Answer: 760 nM

Question: What about the inhibition [25] of the same compound?
Answer: > 50%

Question: For Cc1nc(N)c2ncn(C3(C)CN(C(=O)c4cc(CN5CCN(C6CCCCCC6)CC5)n(C)n4)C3)c2n1, which IC50 [1] is on record?
Answer: 58 nM

Question: What about the IC50 [20] of the same compound?
Answer: 3 µM

Question: For CCN(C(=O)CO)[C@H]1CN(/C(=N\C#N)Nc2cccc(OC(F)F)c2)N=C1c1ccc(Cl)c(Cl)c1, which inhibition [26] is on record?
Answer: 100%

Question: For Cc1cc2c(ncn2C2(C)CN(C(=O)c3ccn(CC4CCN([C@@H]5C=CCCCC5)CC4)c3C)C2)c(N)n1, which inhibition [27] is on record?
Answer: inactive

Question: For Cc1nc(N)c2ncn(C3CN(C(=O)c4cc(CC5CCN(C6CCCCCC6)CC5)n(C)n4)C3)c2n1, which IC50 [1] is on record?
Answer: 32 nM

Question: What about the IC50 [20] of the same compound?
Answer: 3 µM

Question: With Cc1nc(N)c2ncn(C3CN(C(=O)c4ccn(CC5CCN(C6CCCCCC6)CC5)c4)C3)c2n1 as the compound, how does the IC50 [1] read?
Answer: 23 nM

Question: And the IC50 [20]?
Answer: 4 µM
